Experiments:
Assay in all cases: Post-emergence herbicide test
Crabgrass (CG) = format: in vivo, Digitaria sanquinalis; settings: Digitaria sanguinalis, post-emergence, 336 h; 4 lb/acre; two weeks after treatment
Method: Crabgrass (CG)--Digitaria sanquinalis
(§1) All crop and weed species were planted individually in 3' plastic pots containing potting soil. Four seeds each of corn, cotton, and snapbeans were seeded to a depth equal to the diameter of the seed. All other species were surface seeded and sprinkled with screened soil in an amount sufficient to cover the seed. Immediately after planting, all pots were watered by sub-irrigation in greenhouse trays. Pots for the pre-emergence phase were seeded one day before treatment.
(§2) Planting dates for the post-emergence phase were varied so that all seedlings would reach the desired stage of development simultaneously. The proper stage of seedling development for treatment in the post-emergence phase is as follows:
(§3) Spray hood constants required to deliver the above volume are as follows:
(§4) Formulations for spray applications were prepared in 50 ml volumes with the following three components: […]
(§5) Spray applications were made in a hood containing a removable belt and fixed spray nozzle. For passage through the spray hood, one pot of each specie (pre-emergence phase) was placed on the rear half of the flat. Treatments were removed to the greenhouse after spraying. Watering during the observation period was done only by sub-irrigation.
(§6) Two weeks after treatment, pre- and post-emergence injury or control was visually rated, and the results were as shown in the following tables. Pre-emergence data are provided in TABLE III and post-emergence data are provided in TABLE IV, for compounds having the formula illustrated in TABLE I. Correspondingly, pre-emergence and post-emergence data, respectively, are set forth in TABLES V AND VI, for compounds having the formula illustrated in TABLE II.

Johnson grass (JG) = format: in vivo, Sorgum helepense; settings: Sorghum halepense, 336 h, 4 lb/acre, two weeks after treatment
Method: Johnson grass (JG)--Sorgum helepense
as §1, §2
(§7) Compounds were tested at rates of application equivalent to 8 lbs. of actual compound per acre in a spray volume of 38 gallons per acre. Spray hood constants required to deliver the above volume are as follows:
(§8) Formulations for spray applications were prepared in 50 ml volumes with the following three components:
(§9) Formulations for the 4 lbs/acre rate were prepared by adjusting the amount of active ingredient accordingly.
as §5, §6

Barnyard grass (BG) = format: in vivo; settings: Echinochloa crus-galli, 336 h, 4 lb/acre, two weeks after treatment
Method: Barnyard grass (BG)--Echinochloa crus-galli
as §1, §2, §7, §8, §9, §5, §6

Amaranth pigweed (PW) = format: in vivo, Amaranthus retroflexus; settings: 336 h, two weeks after treatment; for pest or weed control at 2241.7 g/ha: 2 lb/acre; for pest or weed control at 4483.4 g/ha: 4 lb/acre
Method: Amaranth pigweed (PW)--Amaranthus retroflexus
as §1, §2
(§10) Pigweed and turnips: 1 or 2 true leaves above visible cotyledons.
as §7, §8, §9, §5, §6

Turnip (TP) = format: in vivo, Brassica sp.; settings: Brassica rapa, post-emergence, 336 h, two weeks after treatment; for pest or weed control at 2241.7 g/ha: 2 lb/acre; for pest or weed control at 4483.4 g/ha: 4 lb/acre
Method: Turnip (TP)--Brassica sp.
as §1, §2, §10, §3, §4, §5, §6

Cotton (CT) = format: in vivo, Gossypium hirsutum var. DPL smooth leaf; settings: Gossypium hirsutum, post-emergence, 336 h; 4 lb/acre; two weeks after treatment
Method: Cotton (CT)--Gossypium hirsutum var. DPL smooth leaf
as §1, §2
Cotton: first true leaf 1' in length; expanded cotyledons.
as §3, §8, §9, §5, §6

Corn (CN) = format: in vivo; settings: Zea mays, 336 h, 4 lb/acre, two weeks after treatment
Method: as §1, §2, §7, §8, §9, §5, §6

Bean (BN) = format: in vivo, Phaseolus vulgaris var. Black Valentine; settings: Phaseolus vulgaris, post-emergence, 336 h; 4 lb/acre; two weeks after treatment
Method: Bean (BN)--Phaseolus vulgaris var. Black Valentine
as §1, §2
Beans: primary leaves expanded, growing point at primary leaf nodes.
as §3, §8, §9, §5, §6

Structure (SMILES) | pest or weed control at 4483.4 g/ha (Crabgrass (CG)) [%] | pest or weed control at 4483.4 g/ha (Johnson grass (JG)) [%] | pest or weed control at 4483.4 g/ha (Barnyard grass (BG)) [%] | pest or weed control at 2241.7 g/ha (Amaranth pigweed (PW)) [%] | pest or weed control at 4483.4 g/ha (Amaranth pigweed (PW)) [%] | pest or weed control at 2241.7 g/ha (Turnip (TP)) [%] | pest or weed control at 4483.4 g/ha (Turnip (TP)) [%] | pest or weed control at 4483.4 g/ha (Cotton (CT)) [%] | pest or weed control at 4483.4 g/ha (Corn (CN)) [%] | pest or weed control at 4483.4 g/ha (Bean (BN)) [%]
CCC(C)=CCSc1nnc(NC(=O)NC)s1 [Example 50] | 50 | 30 | 20 | 90 | 90 | 60 | 80 | 80 | 30 | 100
CNC(=O)Nc1nnc(SCCC(C)C)s1 [Example 51] | 60 | 40 | 70 | 90 | 90 | 80 | 90 | 100 | 50 | 100
CNC(=O)Nc1nnc(SCCC#N)s1 [Example 52] | 70 | 20 | 20 |  | 80 |  | 80 | 100 | 100 | 100
CNC(=O)Nc1nnc(SCCc2ccccc2)s1 [Example 53] | 60 | 30 | 20 | 90 | 90 | 70 | 90 | 100 | 100 | 100
CNC(=O)Nc1nnc(SCC(C)=O)s1 [Example 54] | 50 | 30 | 30 | 60 | 90 | 60 | 80 | 90 | 30 | 100
